Data published in patent US7683162B2, “Process of preparing a crystalline azithromycin monohydrate” (Taro Pharmaceutical Industries Limited, priority 2004, dated 2010).
Like-named read-outs stand apart in the source and are kept apart here.

Key:
[1] = cited from earlier work; for hygroscopicity (in words) / stability (in words): as described in the cited patent or publication
[2] = Storage of crystalline azithromycin monohydrate under accelerated conditions (40° C. and 75% relative humidity); type: physicochemical
From the text: (§1) The drying step in step (d) may be performed in stages. To achieve the desired water content, the isolated precipitate may first be dried for a period of time; and then dried for a subsequent period of time. Water content may be conveniently determined at different stages to ensure that a specified water content is achieved. Drying time and conditions may be easily optimized by one skilled in the art. Water content determination is in accordance to U.S. Pharmacopeia (USP) <921> Method I, which is incorporated herein by reference in its entirety.
(§2) (i) Chromatographic Conditions—The purity of a crystalline azithromycin monohydrate sample was determined using a high performance liquid chromatography (HPLC) instrument with a variable wavelength detector. The chromatographic conditions were: (i) Column—Xterra RP-18, endcapped 5 μm, 250×4.6 mm or equivalent; (ii) Flow Rate—1.0 mL/min; (iii) Column temperature—28° C.; (iv) Detection—UV at 215 nm; (v) Injection volume—20 μL; (vi) Run time—30 min; and, (vii) Mobile phase,Borate buffer pH=9.5: Acetonitrile (1:1, v/v). The mobile phase was prepared by adding NaOH (5N) to a solution of boric acid (about 1.2 grams) in water (1,000 mL; HPLC grade) to obtain a pH of 9.5.
(§3) (ii) Standard Solution for Purity Determination—A standard solution for purity determination was prepared by dissolving azithromycin monohydrate (about 50 mg, accurately weighed), in sufficient acetonitrile to fill a 25 mL volumetric flask. The azithromycin monohydrate used in the standard solution was prepared according to the procedure set forth in U.S. Pat. No. 6,268,489.
(§4) (iii) Preparation of Crystalline Azithromycin Monohydrate Sample Solution—A crystalline azithromycin monohydrate sample solution was prepared by transferring approximately 50 mg of the crystalline azithromycin monohydrate sample to be assayed into a 25 mL volumetric flask and diluting to volume with acetonitrile.
(§5) (iv) HPLC Protocol—The retention time of azithromycin was about 20 minutes. The retention time of azaerythromycin was about 13 minutes. Six replicates of the standard solution for determination of impurities, and 5 replicates of the standard solution for purity determination were injected into the HPLC system. The relative standard deviation of 5 replicate injections of the standard solution for purity determination was not more than 2.0%. The relative standard deviation of 6 replicate injections of the standard solution for determination of impurities was not more than 5.0%. If necessary, the mobile phase composition and/or flow rate were adjusted to meet the chromatographic parameters. The limit of detection for azaerythromycin was 0.04%. The limit of quantitation for azaerythromycin was 0.04%. The limit of detection for azithromycin was 0.04%. The limit of quantitation for azithromycin was 0.05%.
(§6) [formula] The terms are defined as follows: (i) Wst=Weight of standard in mg; (ii) Wsm=Weight of sample in mg; (iii) Ssm=Peak area of azithromycin obtained from sample solution; (iv) Sst=Average peak area of azithromycin obtained from standard solution for purity determination; (v) Pst=Purity of azithromycin standard in percent; and (vi) Msm=Water content of sample in percent. (B) Determination of Ethanol Content of Crystalline Azithromycin Monohydrate
(§7) The hygroscopicity of a crystalline azithromycin monohydrate was determined by monitoring its water content during storage. Specifically, the water content of the crystalline azithromycin monohydrate was determined at time zero and at various times thereafter during storage (e.g., 1, 2, and 3 months) under ambient conditions and accelerated conditions.

[3] = Storage of crystalline azithromycin monohydrate under ambient conditions (25° C. and 60% relative humidity); type: physicochemical
From the text: as §1, §2, §3, §4, §5, §6, §7

[4] = 3 months at 40° C. and 75% relative humidity
[5] = 40° C., 75% relative humidity, 0 months
[6] = 40° C., 75% relative humidity, 1 month
[7] = 40° C., 75% relative humidity, 2 months
[8] = 40° C., 75% relative humidity, 3 months
[9] = 3 months at 25° C. and 60% relative humidity
[10] = 25° C., 60% relative humidity, 0 months
[11] = 25° C., 60% relative humidity, 3 months

Structure (SMILES): CC[C@H]1OC(=O)[C@H](C)[C@@H](O[C@H]2C[C@@](C)(OC)[C@@H](O)[C@H](C)O2)[C@H](C)[C@@H](O[C@@H]2O[C@H](C)C[C@H](N(C)C)[C@H]2O)[C@](C)(O)C[C@@H](C)CN(C)[C@H](C)[C@@H](O)[C@]1(C)O [azithromycin monohydrate]
- hygroscopicity (in words) [1]: hygroscopic
- stability (in words) [1]: unstable

Structure (SMILES): CC[C@H]1OC(=O)[C@H](C)[C@@H](O[C@H]2C[C@@](C)(OC)[C@@H](O)[C@H](C)O2)[C@H](C)[C@@H](O[C@@H]2O[C@H](C)C[C@H](N(C)C)[C@H]2O)[C@](C)(O)C[C@@H](C)CN(C)[C@H](C)[C@@H](O)[C@]1(C)O.O [azithromycin monohydrate form]
- hygroscopicity (in words) [1]: non-hygroscopic
- stability (in words) [1]: stable

Structure (SMILES): CC[C@H]1OC(=O)[C@H](C)[C@@H](O[C@H]2C[C@@](C)(OC)[C@@H](O)[C@H](C)O2)[C@H](C)[C@@H](O[C@@H]2O[C@H](C)C[C@H](N(C)C)[C@H]2O)[C@](C)(O)C[C@@H](C)CN(C)[C@H](C)[C@@H](O)[C@]1(C)O.O [crystalline azithromycin monohydrate]
- degradation after storage ([2]; 3 months (at least about 3 months), 40° C. and 75% relative humidity): less than 2 % (w/w)
- hygroscopicity (in words) [2, 4]: non-hygroscopic
- stability (in words) [2, 4]: stable
- water content after storage (in words) ([2]; 3 months under accelerated conditions): remained substantially unchanged
- Appearance [2, 5]: White
- Azaerythromycin [2, 5]: 0.3%
- Other Impurities, RRT = 0.23 [2, 5]: % = 0.10
- Other Impurities, RRT = 0.26 [2, 5]: % = 0.20
- Other Impurities, RRT = 0.34 [2, 5]: % = 0.10
- Other Impurities, RRT = 0.42 [2, 5]: % = 0.30
- Other Impurities, RRT = 0.45 [2, 5]: % = 0.07
- Other Impurities, RRT = 0.48 [2, 5]: % = 0.20
- Other Impurities, RRT = 1.45 [2, 5]: % = 0.05
- Other Impurities, RRT = 1.50 [2, 5]: % = 0.20
- Other Impurities, RRT = 1.56 [2, 5]: % = 0.10
- Purity [2, 5]: 100.10%
- Total Impurities [2, 5]: 1.60%
- Water content [2, 5]: 5.9%
- pH [2, 5]: 10.4
- Appearance [2, 6]: White
- Azaerythromycin [2, 6]: 0.4%
- Other Impurities, RRT 0.23 [2, 6]: 0.23, 0.10%
- Other Impurities, RRT 0.26 [2, 6]: 0.26, 0.20%
- Other Impurities, RRT 0.35 [2, 6]: 0.35, 0.10%
- Other Impurities, RRT 0.38 [2, 6]: 0.38, 0.05%
- Other Impurities, RRT 0.43 [2, 6]: 0.43, 0.30%
- Other Impurities, RRT 0.46 [2, 6]: 0.46, 0.08%
- Other Impurities, RRT 0.48 [2, 6]: 0.48, 0.20%
- Other Impurities, RRT 1.50 [2, 6]: 1.50, 0.20%
- Other Impurities, RRT 1.56 [2, 6]: 1.56, 0.20%
- Purity [2, 6]: 101.00%
- Total Impurities [2, 6]: 1.80%
- Water content [2, 6]: 5.9%
- pH [2, 6]: 10.0
- Appearance [2, 7]: White
- Azaerythromycin [2, 7]: 0.3%
- Other Impurities, RRT 0.23 [2, 7]: 0.23, 0.10%
- Other Impurities, RRT 0.25 [2, 7]: 0.25, 0.20%
- Other Impurities, RRT 0.34 [2, 7]: 0.34, 0.10%
- Other Impurities, RRT 0.42 [2, 7]: 0.42, 0.40%
- Other Impurities, RRT 0.45 [2, 7]: 0.45, 0.05%
- Other Impurities, RRT 0.48 [2, 7]: 0.48, 0.20%
- Other Impurities, RRT 1.50 [2, 7]: 1.50, 0.20%
- Other Impurities, RRT 1.56 [2, 7]: 1.56, 0.10%
- Purity [2, 7]: 99.50%
- Total Impurities [2, 7]: 1.70%
- Water content [2, 7]: 5.8%
- pH [2, 7]: 10.3
- Appearance [2, 8]: White
- Azaerythromycin [2, 8]: 0.3%
- Other Impurities, RRT 0.14 [2, 8]: 0.14, 0.20%
- Other Impurities, RRT 0.24 [2, 8]: 0.24, 0.10%
- Other Impurities, RRT 0.35 [2, 8]: 0.35, 0.20%
- Other Impurities, RRT 0.43 [2, 8]: 0.43, 0.40%
- Other Impurities, RRT 0.46 [2, 8]: 0.46, 0.07%
- Other Impurities, RRT 0.49 [2, 8]: 0.49, 0.20%
- Other Impurities, RRT 0.81 [2, 8]: 0.81, 0.06%
- Other Impurities, RRT 0.85 [2, 8]: 0.85, 0.05%
- Other Impurities, RRT 1.50 [2, 8]: 1.50, 0.20%
- Other Impurities, RRT 1.55 [2, 8]: 1.55, 0.08%
- Purity [2, 8]: 98.10%
- Total Impurities [2, 8]: 1.90%
- Water content [2, 8]: 5.7%
- pH [2, 8]: 10.3
- degradation after storage ([2]; at least 3 months at 40° C. and 75% relative humidity): less than 2%
- change in the water content after storage ([2]; at least about 3 months at 40° C. and 75% relative humidity): less than 5%
- hygroscopicity (in words) [3, 9]: non-hygroscopic
- stability (in words) [3, 9]: stable
- water content after storage (in words) ([3]; 3 months under ambient conditions): remained substantially unchanged
- degradation products present after storage ([3]; 3 months, ambient (room temperature)): less than 2 % (w/w)
- Appearance [3, 10]: White crystalline
- Azaerythromycin [3, 10]: 0.3%
- Other Impurities, RRT = 0.23 [3, 10]: RRT = 0.23, % = 0.10
- Other Impurities, RRT = 0.26 [3, 10]: RRT = 0.26, % = 0.20
- Other Impurities, RRT = 0.34 [3, 10]: RRT = 0.34, % = 0.10
- Other Impurities, RRT = 0.42 [3, 10]: RRT = 0.42, % = 0.30
- Other Impurities, RRT = 0.45 [3, 10]: RRT = 0.45, % = 0.07
- Other Impurities, RRT = 0.48 [3, 10]: RRT = 0.48, % = 0.20
- Other Impurities, RRT = 1.45 [3, 10]: RRT = 1.45, % = 0.05
- Other Impurities, RRT = 1.50 [3, 10]: RRT = 1.50, % = 0.20
- Other Impurities, RRT = 1.56 [3, 10]: RRT = 1.56, % = 0.10
- Purity [3, 10]: 100.10%
- Total Impurities [3, 10]: 1.60%
- Water content [3, 10]: 5.9%
- pH [3, 10]: 10.4
- Appearance [3, 11]: White crystalline
- Azaerythromycin [3, 11]: 0.3%
- Other Impurities, RRT = 0.10 [3, 11]: RRT = 0.10, % = 0.20
- Other Impurities, RRT = 0.24 [3, 11]: RRT = 0.24, % = 0.10
- Other Impurities, RRT = 0.35 [3, 11]: RRT = 0.35, % = 0.10
- Other Impurities, RRT = 0.43 [3, 11]: RRT = 0.43, % = 0.30
- Other Impurities, RRT = 0.46 [3, 11]: RRT = 0.46, % = 0.07
- Other Impurities, RRT = 0.49 [3, 11]: RRT = 0.49, % = 0.20
- Other Impurities, RRT = 0.81 [3, 11]: RRT = 0.81, % = 0.10
- Other Impurities, RRT = 0.84 [3, 11]: RRT = 0.84, % = 0.08
- Other Impurities, RRT = 1.50 [3, 11]: RRT = 1.50, % = 0.20
- Other Impurities, RRT = 1.55 [3, 11]: RRT = 1.55, % = 0.10
- Purity [3, 11]: 98.70%
- Total Impurities [3, 11]: 1.80%
- Water content [3, 11]: 5.8%
- pH [3, 11]: 10.2

Structure (SMILES): CC[C@H]1OC(=O)[C@H](C)[C@@H](O[C@H]2C[C@@](C)(OC)[C@@H](O)[C@H](C)O2)[C@H](C)[C@@H](O[C@@H]2O[C@H](C)C[C@H](N(C)C)[C@H]2O)[C@](C)(O)C[C@@H](C)CN(C)[C@H](C)[C@@H](O)[C@]1(C)O [azithromycin dihydrate]
- hygroscopicity (in words) [1]: non-hygroscopic
- stability (in words) [1]: stable

Structure (SMILES): CC[C@H]1OC(=O)[C@H](C)[C@@H](OC2CC(C)(OC)C(O)C(C)O2)[C@H](C)[C@@H](OC2OC(C)CC(N(C)C)C2O)[C@](C)(O)C[C@@H](C)CN(C)[C@H](C)C(O)[C@]1(C)O (stereo partly drawn) [azithromycin, 9-deoxo-9a-aza-9a-methyl-9a-homoerythromycin A]
- stability under acidic conditions ([1]; acidic conditions, U.S. Pat. No. 6,586,576 B2): unstable
